Read-outs that look alike come from different tables or passages of the source.
Tested on: patients with HCV and HBV liver cirrhosis
Assay type: in vivo, human
[1] = Phase 1 140 mg/m^2/4h (n = 3), Grade 1-2
[2] = Phase 1 140 mg/m^2/4h (n = 3), Grade 3
[3] = Phase 1 280 mg/m^2/4h (n = 6), Grade 1-2
[4] = Phase 1 280 mg/m^2/4h (n = 6), Grade 3
[5] = Phase 1 380 mg/m^2/4h (n = 6), Grade 1-2
[6] = Phase 1 380 mg/m^2/4h (n = 6), Grade 3
[7] = Phase 2a 280 mg/m^2/4h, Phase 1/ 2a (n = 3), Grade 1-2
[8] = Phase 2a 280 mg/m^2/4h, Phase 1/ 2a (n = 3), Grade 3
[9] = Phase 2a 280 mg/m^2/4h, Phase 2a only (n = 12), Grade 1-2
[10] = Phase 2a 280 mg/m^2/4h, Phase 2a only (n = 12), Grade 3

Substance: PRI-724
- Liver dysfunction at the recommended dose (Level 2, 280 mg/m^2/4 h): minor and transient
- AE: Anaemia [1]: 0
- AE: Ascites [1]: 0
- AE: Decreased appetite [1]: 0
- AE: Diarrhea [1]: 0
- AE: Dyspepsia [1]: 0
- AE: Erythema [1]: 0
- AE: Headache [1]: 0
- AE: Hepatic function abnormal [1]: 1 (33%)
- AE: Hypertension [1]: 0
- AE: Hyperuricaemia [1]: 0
- AE: Insomnia [1]: 0
- AE: Muscle spasms [1]: 0
- AE: Nasopharyngitis [1]: 1 (33%)
- AE: Nausea [1]: 0
- AE: Pruritus [1]: 0
- AE: Puncture site pain [1]: 0
- AE: Pyrexia [1]: 0
- AE: Spontaneous bacterial peritonitis [1]: 0
- AE: Viral infection [1]: 0
- AE: Vomiting [1]: 0
- Laboratory abnormality: Alanine aminotransferase increased [1]: 0
- Laboratory abnormality: Aspartate aminotransferase increased [1]: 0
- Laboratory abnormality: Blood creatine phosphokinase increased [1]: 0
- Laboratory abnormality: Blood creatinine increased [1]: 0
- Laboratory abnormality: C-reactive protein increased [1]: 0
- SAE: Anaemia [1]: 0
- SAE: Hepatic function abnormal [1]: 0
- SAE: Spontaneous bacterial peritonitis [1]: 0
- SAE: Viral infection [1]: 0
- AE: Anaemia [2]: 0
- AE: Ascites [2]: 0
- AE: Decreased appetite [2]: 0
- AE: Diarrhea [2]: 0
- AE: Dyspepsia [2]: 0
- AE: Erythema [2]: 0
- AE: Headache [2]: 0
- AE: Hepatic function abnormal [2]: 0
- AE: Hypertension [2]: 0
- AE: Hyperuricaemia [2]: 0
- AE: Insomnia [2]: 0
- AE: Muscle spasms [2]: 0
- AE: Nasopharyngitis [2]: 0
- AE: Nausea [2]: 0
- AE: Pruritus [2]: 0
- AE: Puncture site pain [2]: 0
- AE: Pyrexia [2]: 0
- AE: Spontaneous bacterial peritonitis [2]: 0
- AE: Viral infection [2]: 0
- AE: Vomiting [2]: 0
- Laboratory abnormality: Alanine aminotransferase increased [2]: 0
- Laboratory abnormality: Aspartate aminotransferase increased [2]: 0
- Laboratory abnormality: Blood creatine phosphokinase increased [2]: 0
- Laboratory abnormality: Blood creatinine increased [2]: 0
- Laboratory abnormality: C-reactive protein increased [2]: 0
- SAE: Anaemia [2]: 0
- SAE: Hepatic function abnormal [2]: 0
- SAE: Spontaneous bacterial peritonitis [2]: 0
- SAE: Viral infection [2]: 0
- AE: Anaemia [3]: 0
- AE: Ascites [3]: 1 (17%)
- AE: Decreased appetite [3]: 2 (33%)
- AE: Diarrhea [3]: 1 (17%)
- AE: Dyspepsia [3]: 1 (17%)
- AE: Erythema [3]: 0
- AE: Headache [3]: 1 (17%)
- AE: Hepatic function abnormal [3]: 1 (17%)
- AE: Hypertension [3]: 1 (17%)
- AE: Hyperuricaemia [3]: 0
- AE: Insomnia [3]: 1 (17%)
- AE: Muscle spasms [3]: 2 (33%)
- AE: Nasopharyngitis [3]: 1 (17%)
- AE: Nausea [3]: 2 (33%)
- AE: Pruritus [3]: 1 (17%)
- AE: Puncture site pain [3]: 1 (17%)
- AE: Pyrexia [3]: 0
- AE: Spontaneous bacterial peritonitis [3]: 0
- AE: Viral infection [3]: 0
- AE: Vomiting [3]: 2 (33%)
- Laboratory abnormality: Alanine aminotransferase increased [3]: 0
- Laboratory abnormality: Aspartate aminotransferase increased [3]: 0
- Laboratory abnormality: Blood creatine phosphokinase increased [3]: 0
- Laboratory abnormality: Blood creatinine increased [3]: 0
- Laboratory abnormality: C-reactive protein increased [3]: 0
- SAE: Anaemia [3]: 0
- SAE: Hepatic function abnormal [3]: 0
- SAE: Spontaneous bacterial peritonitis [3]: 0
- SAE: Viral infection [3]: 0
- AE: Anaemia [4]: 0
- AE: Ascites [4]: 0
- AE: Decreased appetite [4]: 0
- AE: Diarrhea [4]: 1 (17%)
- AE: Dyspepsia [4]: 0
- AE: Erythema [4]: 0
- AE: Headache [4]: 0
- AE: Hepatic function abnormal [4]: 0
- AE: Hypertension [4]: 0
- AE: Hyperuricaemia [4]: 0
- AE: Insomnia [4]: 0
- AE: Muscle spasms [4]: 0
- AE: Nasopharyngitis [4]: 0
- AE: Nausea [4]: 0
- AE: Pruritus [4]: 0
- AE: Puncture site pain [4]: 0
- AE: Pyrexia [4]: 0
- AE: Spontaneous bacterial peritonitis [4]: 0
- AE: Viral infection [4]: 0
- AE: Vomiting [4]: 0
- Laboratory abnormality: Alanine aminotransferase increased [4]: 1 (17%)
- Laboratory abnormality: Aspartate aminotransferase increased [4]: 1 (17%)
- Laboratory abnormality: Blood creatine phosphokinase increased [4]: 0
- Laboratory abnormality: Blood creatinine increased [4]: 0
- Laboratory abnormality: C-reactive protein increased [4]: 0
- SAE: Anaemia [4]: 0
- SAE: Hepatic function abnormal [4]: 0
- SAE: Spontaneous bacterial peritonitis [4]: 0
- SAE: Viral infection [4]: 0
- AE: Anaemia [5]: 0
- AE: Ascites [5]: 1 (17%)
- AE: Decreased appetite [5]: 1 (17%)
- AE: Diarrhea [5]: 2 (33%)
- AE: Dyspepsia [5]: 0
- AE: Erythema [5]: 0
- AE: Headache [5]: 1 (17%)
- AE: Hepatic function abnormal [5]: 0
- AE: Hypertension [5]: 0
- AE: Hyperuricaemia [5]: 0
- AE: Insomnia [5]: 1 (17%)
- AE: Muscle spasms [5]: 0
- AE: Nasopharyngitis [5]: 0
- AE: Nausea [5]: 2 (33%)
- AE: Pruritus [5]: 0
- AE: Puncture site pain [5]: 0
- AE: Pyrexia [5]: 2 (33%)
- AE: Spontaneous bacterial peritonitis [5]: 0
- AE: Viral infection [5]: 0
- AE: Vomiting [5]: 1 (17%)
- Laboratory abnormality: Alanine aminotransferase increased [5]: 0
- Laboratory abnormality: Aspartate aminotransferase increased [5]: 1 (17%)
- Laboratory abnormality: Blood creatine phosphokinase increased [5]: 1 (17%)
- Laboratory abnormality: Blood creatinine increased [5]: 0
- Laboratory abnormality: C-reactive protein increased [5]: 1 (17%)
- SAE: Anaemia [5]: 0
- SAE: Hepatic function abnormal [5]: 0
- SAE: Spontaneous bacterial peritonitis [5]: 0
- SAE: Viral infection [5]: 0
- AE: Anaemia [6]: 0
- AE: Ascites [6]: 0
- AE: Decreased appetite [6]: 0
- AE: Diarrhea [6]: 0
- AE: Dyspepsia [6]: 0
- AE: Erythema [6]: 0
- AE: Headache [6]: 0
- AE: Hepatic function abnormal [6]: 1 (17%)
- AE: Hypertension [6]: 0
- AE: Hyperuricaemia [6]: 0
- AE: Insomnia [6]: 0
- AE: Muscle spasms [6]: 0
- AE: Nasopharyngitis [6]: 0
- AE: Nausea [6]: 0
- AE: Pruritus [6]: 0
- AE: Puncture site pain [6]: 0
- AE: Pyrexia [6]: 0
- AE: Spontaneous bacterial peritonitis [6]: 0
- AE: Viral infection [6]: 1 (17%)
- AE: Vomiting [6]: 0
- Laboratory abnormality: Alanine aminotransferase increased [6]: 0
- Laboratory abnormality: Aspartate aminotransferase increased [6]: 0
- Laboratory abnormality: Blood creatine phosphokinase increased [6]: 0
- Laboratory abnormality: Blood creatinine increased [6]: 0
- Laboratory abnormality: C-reactive protein increased [6]: 0
- SAE: Anaemia [6]: 0
- SAE: Hepatic function abnormal [6]: 1 (17%)
- SAE: Spontaneous bacterial peritonitis [6]: 0
- SAE: Viral infection [6]: 1 (17%)
- Serious adverse events (SAEs) observed (Phase 1/2a, 27 patients): four SAEs among three (one from phase 1 and two from phase 2a) of the 27 patients
- AE: Anaemia [7]: 0
- AE: Ascites [7]: 0
- AE: Decreased appetite [7]: 1 (33%)
- AE: Diarrhea [7]: 1 (33%)
- AE: Dyspepsia [7]: 0
- AE: Erythema [7]: 0
- AE: Headache [7]: 0
- AE: Hepatic function abnormal [7]: 0
- AE: Hypertension [7]: 1 (33%)
- AE: Hyperuricaemia [7]: 0
- AE: Insomnia [7]: 1 (33%)
- AE: Muscle spasms [7]: 0
- AE: Nasopharyngitis [7]: 0
- AE: Nausea [7]: 1 (33%)
- AE: Pruritus [7]: 0
- AE: Puncture site pain [7]: 1 (33%)
- AE: Pyrexia [7]: 0
- AE: Spontaneous bacterial peritonitis [7]: 0
- AE: Viral infection [7]: 0
- AE: Vomiting [7]: 1 (33%)
- Laboratory abnormality: Alanine aminotransferase increased [7]: 0
- Laboratory abnormality: Aspartate aminotransferase increased [7]: 0
- Laboratory abnormality: Blood creatine phosphokinase increased [7]: 0
- Laboratory abnormality: Blood creatinine increased [7]: 0
- Laboratory abnormality: C-reactive protein increased [7]: 0
- SAE: Anaemia [7]: 0
- SAE: Hepatic function abnormal [7]: 0
- SAE: Spontaneous bacterial peritonitis [7]: 0
- SAE: Viral infection [7]: 0
- AE: Anaemia [8]: 0
- AE: Ascites [8]: 0
- AE: Decreased appetite [8]: 0
- AE: Diarrhea [8]: 0
- AE: Dyspepsia [8]: 0
- AE: Erythema [8]: 0
- AE: Headache [8]: 0
- AE: Hepatic function abnormal [8]: 0
- AE: Hypertension [8]: 0
- AE: Hyperuricaemia [8]: 0
- AE: Insomnia [8]: 0
- AE: Muscle spasms [8]: 0
- AE: Nasopharyngitis [8]: 0
- AE: Nausea [8]: 0
- AE: Pruritus [8]: 0
- AE: Puncture site pain [8]: 0
- AE: Pyrexia [8]: 0
- AE: Spontaneous bacterial peritonitis [8]: 0
- AE: Viral infection [8]: 0
- AE: Vomiting [8]: 0
- Laboratory abnormality: Alanine aminotransferase increased [8]: 0
- Laboratory abnormality: Aspartate aminotransferase increased [8]: 0
- Laboratory abnormality: Blood creatine phosphokinase increased [8]: 0
- Laboratory abnormality: Blood creatinine increased [8]: 0
- Laboratory abnormality: C-reactive protein increased [8]: 0
- SAE: Anaemia [8]: 0
- SAE: Hepatic function abnormal [8]: 0
- SAE: Spontaneous bacterial peritonitis [8]: 0
- SAE: Viral infection [8]: 0
- AE: Anaemia [9]: 0
- AE: Ascites [9]: 0
- AE: Decreased appetite [9]: 3 (25%)
- AE: Diarrhea [9]: 2 (17%)
- AE: Dyspepsia [9]: 0
- AE: Erythema [9]: 2 (17%)
- AE: Headache [9]: 1 (8%)
- AE: Hepatic function abnormal [9]: 1 (8%)
- AE: Hypertension [9]: 0
- AE: Hyperuricaemia [9]: 1 (8%)
- AE: Insomnia [9]: 0
- AE: Muscle spasms [9]: 0
- AE: Nasopharyngitis [9]: 1 (8%)
- AE: Nausea [9]: 2 (17%)
- AE: Pruritus [9]: 2 (17%)
- AE: Puncture site pain [9]: 0
- AE: Pyrexia [9]: 0
- AE: Spontaneous bacterial peritonitis [9]: 0
- AE: Viral infection [9]: 0
- AE: Vomiting [9]: 1 (8%)
- Laboratory abnormality: Alanine aminotransferase increased [9]: 2 (17%)
- Laboratory abnormality: Aspartate aminotransferase increased [9]: 3 (25%)
- Laboratory abnormality: Blood creatine phosphokinase increased [9]: 0
- Laboratory abnormality: Blood creatinine increased [9]: 1 (8%)
- Laboratory abnormality: C-reactive protein increased [9]: 0
- SAE: Anaemia [9]: 0
- SAE: Hepatic function abnormal [9]: 0
- SAE: Spontaneous bacterial peritonitis [9]: 0
- SAE: Viral infection [9]: 0
- AE: Anaemia [10]: 2 (17%)
- AE: Ascites [10]: 0
- AE: Decreased appetite [10]: 0
- AE: Diarrhea [10]: 1 (8%)
- AE: Dyspepsia [10]: 0
- AE: Erythema [10]: 0
- AE: Headache [10]: 0
- AE: Hepatic function abnormal [10]: 0
- AE: Hypertension [10]: 1 (8%)
- AE: Hyperuricaemia [10]: 1 (8%)
- AE: Insomnia [10]: 0
- AE: Muscle spasms [10]: 0
- AE: Nasopharyngitis [10]: 0
- AE: Nausea [10]: 0
- AE: Pruritus [10]: 0
- AE: Puncture site pain [10]: 0
- AE: Pyrexia [10]: 0
- AE: Spontaneous bacterial peritonitis [10]: 1 (8%)
- AE: Viral infection [10]: 0
- AE: Vomiting [10]: 0
- Laboratory abnormality: Alanine aminotransferase increased [10]: 1 (8%)
- Laboratory abnormality: Aspartate aminotransferase increased [10]: 0
- Laboratory abnormality: Blood creatine phosphokinase increased [10]: 0
- Laboratory abnormality: Blood creatinine increased [10]: 0
- Laboratory abnormality: C-reactive protein increased [10]: 0
- SAE: Anaemia [10]: 1 (8%)
- SAE: Hepatic function abnormal [10]: 0
- SAE: Spontaneous bacterial peritonitis [10]: 1 (8%)
- SAE: Viral infection [10]: 0
- AE liver dysfunction, patients (all patients, 4/27): 15%
- AE vomiting, patients (all patients, 4/27): 15%
- AE loss of appetite, patients (all patients, 6/27): 22%
- AE nausea, patients (all patients, 6/27): 22%
- AE diarrhoea, patients (all patients, 7/27): 26%
- SAEs related to PRI-724 (observed in the 380 mg/m^2/4 h cohort (liver dysfunction: grade 3)): One of the four SAEs was possibly related to the PRI-724

Source: article PMC9126795 (eBioMedicine, 2022)
